ChEMBL document CHEMBL1201862, “PubChem BioAssay data set” (2004)
The source made the active and inactive calls.

Legend:
[1] = system: BJ; experiment: cytotoxicity toward BJ-TERT fibroblasts, dose response, cell-based, RAS-independent, luminescence (AID 1933); type: functional; conditions: Homo sapiens
[2] = cells; type: functional, cell-based
[3] = cytotoxicity toward NIH3T3 fibroblasts, dose response, counter-screen, cell-based, ATP luminescence, mouse fibroblasts (AID 2010); type: functional;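 note: cells exposed to compound for about 90 hours before reading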
[4] = cytotoxicity in HEK-293T cells, dose response, cytotoxicity control for TCR NF-kB inhibitor project, luminescence, T-cell screen hits (AID 489026); type: functional, cell-based;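 note: cells exposed to compound about 14 hours before the viability readout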
[5] = target: T1, Insulin-degrading enzyme (Homo sapiens, UniProt P14735); experiment: activators of recombinant IDE enzyme, dose response, counter-screen for IDE activator project, biochemical, fluorescence polarization (AID 588681)
T1 sequence (P14735 whole entry): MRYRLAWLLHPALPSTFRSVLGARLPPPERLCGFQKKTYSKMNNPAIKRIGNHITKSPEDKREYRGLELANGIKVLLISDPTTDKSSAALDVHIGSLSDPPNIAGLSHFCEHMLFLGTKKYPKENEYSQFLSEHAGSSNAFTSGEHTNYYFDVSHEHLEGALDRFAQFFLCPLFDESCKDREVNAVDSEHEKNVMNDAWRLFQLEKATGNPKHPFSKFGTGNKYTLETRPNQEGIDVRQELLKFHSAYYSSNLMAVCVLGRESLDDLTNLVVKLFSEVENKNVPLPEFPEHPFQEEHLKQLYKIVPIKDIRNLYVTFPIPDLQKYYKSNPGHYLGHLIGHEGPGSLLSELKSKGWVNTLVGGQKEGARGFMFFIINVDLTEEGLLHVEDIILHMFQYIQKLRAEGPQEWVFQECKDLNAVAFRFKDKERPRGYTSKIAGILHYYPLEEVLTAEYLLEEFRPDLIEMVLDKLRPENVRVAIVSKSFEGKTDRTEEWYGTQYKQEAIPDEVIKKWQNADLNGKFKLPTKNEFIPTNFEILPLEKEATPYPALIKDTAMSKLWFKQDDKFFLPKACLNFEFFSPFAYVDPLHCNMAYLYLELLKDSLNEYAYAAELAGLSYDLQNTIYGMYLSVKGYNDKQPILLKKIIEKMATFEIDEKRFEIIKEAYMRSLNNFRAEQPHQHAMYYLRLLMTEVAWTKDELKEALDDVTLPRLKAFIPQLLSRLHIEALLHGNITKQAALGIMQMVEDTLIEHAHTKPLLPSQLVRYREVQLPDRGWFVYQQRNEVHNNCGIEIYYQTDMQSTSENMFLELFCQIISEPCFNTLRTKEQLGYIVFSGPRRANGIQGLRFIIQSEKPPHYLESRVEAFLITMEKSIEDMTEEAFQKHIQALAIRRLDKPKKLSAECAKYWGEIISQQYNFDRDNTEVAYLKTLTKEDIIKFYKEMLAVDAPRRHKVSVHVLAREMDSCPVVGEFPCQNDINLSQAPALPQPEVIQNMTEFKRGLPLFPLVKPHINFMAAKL

[6] = growth suppression of beta-catenin-knockout colon cells, dose response, cell-based, HCT116, human colon tumor (AID 1045); type: functional;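 note: HCT116 colon tumor cells with beta catenin knocked out; cells exposed to compound for 60 hours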
[7] = target: T2, Tyrosyl-DNA phosphodiesterase 2 (Homo sapiens, UniProt O95551); experiment: human TDP2 enzyme inhibitors, dose response, biochemical, epi absorbance, IC50 (AID 743297)
T2 sequence (O95551 whole entry): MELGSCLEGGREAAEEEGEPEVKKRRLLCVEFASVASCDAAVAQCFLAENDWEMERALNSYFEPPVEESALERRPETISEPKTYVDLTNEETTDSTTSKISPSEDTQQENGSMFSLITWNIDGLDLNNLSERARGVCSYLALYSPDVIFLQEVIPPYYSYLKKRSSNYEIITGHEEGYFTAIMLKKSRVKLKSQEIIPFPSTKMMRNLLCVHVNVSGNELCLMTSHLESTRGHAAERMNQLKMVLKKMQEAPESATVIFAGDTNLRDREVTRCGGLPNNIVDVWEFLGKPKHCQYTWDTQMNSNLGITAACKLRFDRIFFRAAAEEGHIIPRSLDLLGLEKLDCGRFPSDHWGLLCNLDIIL

[8] = target: Glucose-6-phosphate 1-dehydrogenase (Homo sapiens, UniProt P11413); experiment: human G6PD enzyme inhibitors, dose response, selectivity assay for P. falciparum G6PD inhibitor project, biochemical, fluorescence (AID 504792); type: functional
Glucose-6-phosphate 1-dehydrogenase, sequence (P11413 whole entry): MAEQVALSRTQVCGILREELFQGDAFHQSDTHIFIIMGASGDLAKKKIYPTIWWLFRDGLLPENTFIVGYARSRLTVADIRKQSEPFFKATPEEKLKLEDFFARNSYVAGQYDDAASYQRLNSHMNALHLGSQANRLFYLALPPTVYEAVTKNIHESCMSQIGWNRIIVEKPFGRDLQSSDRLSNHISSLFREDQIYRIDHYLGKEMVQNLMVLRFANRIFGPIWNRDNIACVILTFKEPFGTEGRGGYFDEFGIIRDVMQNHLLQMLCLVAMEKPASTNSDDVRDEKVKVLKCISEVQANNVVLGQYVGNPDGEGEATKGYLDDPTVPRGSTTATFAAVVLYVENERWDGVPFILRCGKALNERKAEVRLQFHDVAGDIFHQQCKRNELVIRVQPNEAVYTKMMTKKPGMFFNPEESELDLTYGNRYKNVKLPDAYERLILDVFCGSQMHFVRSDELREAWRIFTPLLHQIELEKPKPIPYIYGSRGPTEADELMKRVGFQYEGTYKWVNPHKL

SMILES: CC(=O)NC(c1ccc2ccccc2c1)c1ccc2cccnc2c1O (stereo not drawn)
- EC50 [1]: 0.687 µM (active)
- EC50 [2]: > 350 µM (not active)
- EC50 [3]: 0.589 µM (active)
- IC50 [4]: > 80 µM (inactive)

SMILES: CCOC(=O)C1=C(c2ccccc2)N=C(N)NC1c1ccc(OCc2ccc(Cl)cc2)c(OC)c1 (stereo not drawn)
- EC50 [5]: 52.1 µM (inactive)

SMILES: CCOC(=O)c1c(C)[nH]c2c1-c1ccccc1C(=O)C2=O
- EC50 [6]: 0.403 µM (active)
- IC50 [7]: 0.915 µM (active)

SMILES: COc1ccc2c(c1)CCC(/C=N/c1ccc3c(c1)OCO3)=C2O
- IC50 [8]: > 80 µM (inactive)
